Data on 4 compounds can be found in patent US20080039442A1, “Compounds With Kv4 Ion Channel Activity” (Devgen NV, priority 2004, published 2008).

One data set deals with hERG potassium channel (Homo sapiens, UniProt Q12809). The data set is described as follows: Whole cell patch clamp, HEK 293 T-REx HERG cells. Particulars: 10 μM.
Data set [1] deals with C. elegans wild-type strain N2. The experiment in a line: Same pumping assay format using C. elegans wild-type strain N2. The format is in vivo. As to conditions: read-out: EC50 (μM) N2 worm. The text has this:
The screening of the compounds according to the present invention has been performed in the C. elegans based high-throughput screen for Kv4.3 modulators described above. The method for testing the activity on human Kv4.3 of the compounds according to the invention with C. elegans strains expressing human Kv4.3 for their activity is the same as the method described in WO 03/097682. The method for testing the compounds on wild-type C. elegans strains not expressing human Kv4.3 is the same as the method described in WO 00/63427. Briefly, UG1755 animals have been grown in large numbers and staged young adults (no or only few eggs inside the uterus) have been harvested on the day of screening. Approximately 125 animals in 80 μl buffer have been dispensed per well of a “U” shaped 96-well compound plate. The compound plate contained already compound material at a final concentration of 30 μM in 0.3% DMSO. […] After another four hours of incubation at 20° C., the drinking of C. elegans animals (or the “reaction” as measured by the uptake of CAM) has been stopped by adding 10 μl of a 60 μM ivermectin solution. The fluorescence intensity (counts per second) has been measured 40 minutes after adding ivermectin with the Wallac plate reader at a wavelength of 535 nm (after excitation at 485 nm). […]

A further data set addresses T1, human Kv4.3 (Homo sapiens, UniProt Q9UK17).
T1 construct: expressed in transfected cells; host or cells: transgenic C. elegans strain UG1755 (plasmid pGV8 integrated; expression in the pharynx)
T1 sequence (Q9UK17 1-655): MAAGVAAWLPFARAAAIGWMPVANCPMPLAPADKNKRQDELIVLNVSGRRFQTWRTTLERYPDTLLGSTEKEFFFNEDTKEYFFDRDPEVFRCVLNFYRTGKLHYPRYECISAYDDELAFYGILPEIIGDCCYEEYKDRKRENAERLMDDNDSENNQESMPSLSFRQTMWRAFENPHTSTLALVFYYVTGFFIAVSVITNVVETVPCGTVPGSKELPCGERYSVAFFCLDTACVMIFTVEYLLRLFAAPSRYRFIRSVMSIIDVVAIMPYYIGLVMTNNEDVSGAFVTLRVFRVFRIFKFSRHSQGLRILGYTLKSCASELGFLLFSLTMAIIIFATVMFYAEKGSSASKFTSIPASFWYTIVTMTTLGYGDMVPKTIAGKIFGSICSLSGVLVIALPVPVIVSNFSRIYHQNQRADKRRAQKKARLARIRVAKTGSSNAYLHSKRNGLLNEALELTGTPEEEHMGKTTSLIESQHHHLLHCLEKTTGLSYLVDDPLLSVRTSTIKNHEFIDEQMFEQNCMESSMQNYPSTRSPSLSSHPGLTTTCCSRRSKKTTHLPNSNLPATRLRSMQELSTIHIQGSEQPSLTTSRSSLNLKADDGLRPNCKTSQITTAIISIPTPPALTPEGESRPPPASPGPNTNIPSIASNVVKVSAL
The experiment in a line: C. elegans based high-throughput screen for Kv4.3 modulators (pharynx pumping, Calcein AM uptake), strain UG1755. The format is in vivo. As to conditions: for Ratio N2/Kv4.3: EC50 on N2 divided by EC50 on the Kv4.3 expressing strain, cut-off 1.8; for EC50: transgenic strain expressing human Kv4.3, read-out: EC50 (μM) Kv4.3 worm. The text has this:
A C. elegans based high-throughput screen for Kv4.3 modulators has been used to establish an in vivo SAR (structure-activity relationships: the effect of chemical structure on biological activity) on Kv4.3 for the compounds according to the present invention.
This assay has employed a stable transgenic C. elegans strain that functionally expressed human Kv4.3 in the pharynx and a visible selection GFP maker in body-wall muscle.
The method to describe the construction of a transgenic C. elegans strain expressing human Kv4.3 has been described in WO 03/097682. Briefly, the actual used strain UG1755 has been generated by microinjection into the gonad of a wild-type strain N2 with a mix of 5 ng/μl plasmid pGV8 (human Kv4.3), 20 ng/μl pDW2821 (GFP-marker) and 40 ng/μl genomic C. elegans DNA. Transgenic animals have been isolated and submitted to integration of the extra-chromosomal array into the genome of C. elegans. A line with 50% transmission of the functional expressed human Kv4.3 has been mutagenized with gamma irradiation using a Cobalt source. About 12000 F2 animals have been singled out and their progeny has been screened for the 100% transmission of the GFP marker. Lines with 100% transmission of GFP have been considered as potentially integrated. These lines have been further tested and out-crossed with N2 strain two-times. All lines obtained have been tested for viability, GFP and human Kv4.3 expression. At the end of a selection process, UG1755 was identified as most suitable C. elegans strain amenable to high throughput screening (HTS). This stable strain has expressed human Kv4.3 as confirmed by electropharyngeograms (EPG) analysis. The method has been described in WO 03/097682. Briefly, dissected pharynxes of UG1755 C. elegans animals have been prepared and Electropharyngeograms (EPGs) have been recorded using an Axopatch-1D amplifier (Axon instruments). Pharynxes have been equilibrated for about 2 minutes in the bath solution (Dent's saline with 0.5% DMSO) until stable EPG recordings have been seen. Compound solution (DMSO or 100 μM Flecamide) has been added to the bath solution. The number of ultra short EPGs (10-20 ms) and normal EPGs (100-200 ms) has been analyzed and given as ratio in percentage. […] In addition standard qRT-PCR confirmed the presence of the human Kv4.3 transgene in UG1755 as well as human Kv4.3 protein has been detected with the human Kv4.3 antibody P 0358 in the pharynx of UG1755 animals. […]
Introducing the human Kv4.3 channel into the C. elegans pharynx influences the C. elegans action potential in a characteristic fashion. […] The pumping end-point can be technically translated into a high-throughput read-out by the use of a pro-fluorescent dye. […]

The term melting point denotes the temperature of the solid-liquid transition. By EC50 is commonly meant the midpoint of the concentration-response curve.

Like-named read-outs stand apart in the source and are kept apart here.

Chain of hERG potassium channel (Q12809 whole entry): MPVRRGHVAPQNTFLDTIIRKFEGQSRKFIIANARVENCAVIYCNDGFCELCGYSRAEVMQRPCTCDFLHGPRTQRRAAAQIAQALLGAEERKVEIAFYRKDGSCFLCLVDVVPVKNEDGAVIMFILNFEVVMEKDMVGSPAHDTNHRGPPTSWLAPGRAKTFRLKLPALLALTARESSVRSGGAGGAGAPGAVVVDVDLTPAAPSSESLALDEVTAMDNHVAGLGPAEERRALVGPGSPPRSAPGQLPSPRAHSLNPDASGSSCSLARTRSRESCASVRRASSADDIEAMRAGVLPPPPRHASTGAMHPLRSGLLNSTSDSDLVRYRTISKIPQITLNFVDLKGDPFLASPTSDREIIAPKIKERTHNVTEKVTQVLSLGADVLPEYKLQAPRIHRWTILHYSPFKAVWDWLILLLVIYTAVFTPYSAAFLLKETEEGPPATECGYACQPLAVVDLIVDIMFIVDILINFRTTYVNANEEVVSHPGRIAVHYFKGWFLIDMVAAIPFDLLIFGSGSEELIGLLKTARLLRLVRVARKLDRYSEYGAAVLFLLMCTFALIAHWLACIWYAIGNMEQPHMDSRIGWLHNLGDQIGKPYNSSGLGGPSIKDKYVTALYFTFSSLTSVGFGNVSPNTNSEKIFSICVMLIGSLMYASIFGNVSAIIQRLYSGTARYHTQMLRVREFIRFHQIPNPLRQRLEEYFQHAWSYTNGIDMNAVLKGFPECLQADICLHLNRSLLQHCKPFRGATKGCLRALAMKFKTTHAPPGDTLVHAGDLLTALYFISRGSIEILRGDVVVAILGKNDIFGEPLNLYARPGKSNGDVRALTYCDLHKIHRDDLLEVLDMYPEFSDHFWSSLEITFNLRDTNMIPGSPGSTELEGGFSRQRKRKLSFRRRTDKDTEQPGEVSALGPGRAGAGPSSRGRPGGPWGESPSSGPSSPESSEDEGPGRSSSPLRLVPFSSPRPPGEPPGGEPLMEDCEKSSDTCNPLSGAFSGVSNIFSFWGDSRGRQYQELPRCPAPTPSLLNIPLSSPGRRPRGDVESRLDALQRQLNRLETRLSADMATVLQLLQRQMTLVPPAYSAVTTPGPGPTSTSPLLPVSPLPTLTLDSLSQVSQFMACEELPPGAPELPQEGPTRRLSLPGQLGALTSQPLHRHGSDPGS
Description for hERG potassium channel: For this experiment HEK 293 T-REx HERG cells (#23) were used. This cell line made by IonGate is characterized by the inducible expression of the hERG gene. The T-REx™ System (Invitrogen, Karlsruhe, Germany) is a tetracycline-regulated mammalian expression system that uses regulatory elements from the E. coli Tn10-encoded tetracycline (Tet) resistance operon. In the absence of Tet the expression is repressed. Tetracycline regulation in the T-REx™ System is based on the binding of tetracycline to the Tet repressor and derepression of the promoter controlling expression of the hERG gene. Addition of Tet to the cell culture media results in expression of the hERG potassium channel.
To construct the HEK 293 T-REx HERG cell line, the hERG gene was ligated into the inducible expression vector pcDNA4/TO (→pc4TO-HERG) and transfected into HEK 293 T-REx cells (this cell line stably expresses the Tet repressor and was purchased at Invitrogen). Stable cell clones were isolated after selection with Blasticidin (5 μg/ml) and Zeocin™ (300 μg/ml). The clones were electrophysiological characterized after induction with 1 μg/ml Tet.
Experiments were performed using the patch clamp set-up. Technical equipment needed for manipulation of the cells was placed on a vibration-isolated table and shielded with a Faraday cage to minimize electrical noise. The amplifier and control system were placed in a rack outside the Faraday cage. The system consisted of an EPC9 or EPC10 patch clamp amplifier (HEKA, Lambrecht, Germany), and the perfusion system DADVC8 (ALA Scientific, New York, USA) controlled by the Pulse software package (HEKA, Lambrecht, Germany) installed on a personal computer.
The cells used for this experiment were kept in continuous culture under standard conditions (37° C., air supplemented with 5% CO2). The HEK 293 T-REx HERG cells were kept in minimal essential medium (MEM) supplemented with 100 U/ml Penicillin, 100 μg/ml Streptomycin, 10% fetal calf serum (FCS), 1% non-essential amino acids (NEAA), 2.5 μg/ml amphotericin, 300 μg/ml Zeocin™ and 5 μg/ml Blasticidin. Cells were passed every 3-4 days after detachment using a Trypsin solution. The quality of the cultured cells was guaranteed by vitality and contamination tests.
At least 18 hours prior to electrophysiological experiments the cells were detached by application of iced PBS (phosphate buffered saline) or Trypsin and replated on cover slips. 1 μg/ml Tet was added to the cells to induce hERG expression.
Activity of the cardiac hERG channel was investigated using the patch clamp technique in its whole cell mode. This means that the current needed for clamping the whole cell expressing the K^+-channel protein to a specific potential was measured. The pipettes used for patch clamping were made of borosilicate glass. Measurements were performed at room temperature (20-25° C.). In each experiment (i.e. each cell) only one concentration of the compound was investigated—no cumulative dosages were performed. Each cell acted as its own control. The effect of the compounds on hERG mediated currents was investigated at one concentration (10 μM) with two replicates each (c=1, n=2).
Between voltage pulses the cell was clamped to a holding potential of −80 mV (inside).
(b) and (c) were used to characterize the properties of the hERG channel and to check the quality of the individual patch clamp experiment (voltage control). Each test protocol consisted of 6 segments.

The compound `Cc1c(C(=O)NCc2ccc(F)c(C(F)(F)F)c2)sc2ccc(Cl)cc12` [Compound 107, 5-chloro-3-methyl-benzo[b]thiophene-2-carboxylic acid 4-fluoro-3-trifluoromethyl-benzylamide] gave a melting point of 134 to 136.5 °C. The “hERG (%)” value on hERG potassium channel turned out to be 38%.

In the case of “5-chloro-benzofuran-2- carboxylic acid [3- (10,11-dihydro- dibenzo[a,d]cyclohepten- 5-ylidene)-propyl]- methyl-amide [Compound 5]”, in data set [1], the EC50 worked out at 24 µM. At human Kv4.3, the “Ratio N2/Kv4.3” value is listed as 5.7 and the EC50 is 4.2 µM.

For the compound `C[C@@H](NC(=O)c1cc2cc(Cl)ccc2o1)c1ccc([N+](=O)[O-])cc1` [Compound 1, 5-chloro-benzofuran-2-carboxylic acid [(R)-1-(4-nitro-phenyl)-ethyl]-amide], the EC50 in data set [1] (Caenorhabditis elegans) was more than 30 µM. Further, on human Kv4.3, the “Ratio N2/Kv4.3” value is on record as more than 4.9 and the EC50 was 6.1 µM.

`O=C(NCc1ccc(OC(F)(F)F)cc1)c1cc2cc(Cl)ccc2o1` [Compound 89, 5-chloro-benzofuran-2-carboxylic acid 4-trifluoromethoxy-benzylamide] returned a melting point of 101.3 to 106.3 °C. In addition, the “hERG (%)” value at hERG potassium channel is listed as 39%.
